Laboratory results from patent US20060127400A1, “Activation of regulatory T cells by alpha-melanocyte stimulating hormone” (THE SCHEPENS EYE RESEARCH INSTITUTE, INC., priority 1999, published 2006).
“Also recorded” adds a separate entry of the source. No end group written: not given here.

What was measured:
CD25+ CD4+ T cells = experiment: two-color flow cytometry for CD4 and CD25 on activated primed T cells; type: cell-based, mouse; settings: TCR-stimulated in the presence or absence of α-MSH 30 pg/ml, 24 hours
Experimental: In another example, for immunostaining and fluorescence-activated cell sorting, T cells (2×10^6 cells) from 24 hour cultures of the α-MSH-treated activated T cells were centrifuged and washed once in PBS/BSA buffer (10 mM PBS, 3% BSA). The cells were resuspended in 50 μl of PBS/BSA buffer containing 2 μg of PE-conjugated anti-CD4 and FITC-conjugated anti-CD25 antibodies and incubated for 30 minutes room temperature. The cells were centrifuged, resuspended in 1 ml of PBS/BSA buffer, and washed two times. The stained cells were sorted by a Coulter ELITE cell sorter calibrated for two color fluorescence. The cells were sorted into two populations, CD25^+ CD4^+ cells and the remaining cells (all CD4^− cells plus CD25^−CD4^+ cells). The sorted cells were used immediately in the in vitro regulatory T cell assay.
α-MSH induced CD25^+ CD4^+ regulatory T cells. To characterize the regulatory T cells induced by α-MSH, we assayed through flow cytometry the possibility that α-MSH induces CD25^+ (IL-2Rα) CD4^+ regulatory T cells. […] The cells were analyzed by two-color flow cytometry after staining with anti-CD4 and anti-CD25. Presented is a representative dot plot of the flow cytometry seen in four separate staining experiments. (B) Only T cells activated in the presence of α-MSH, were stained and sorted based on the coexpression of CD4 and CD25. […]

[1] = tested on: experimental autoimmune uveitis; experiment: EAU, α-MSH injected i.v. at the time of peak retinal inflammation; type: in vivo, mouse
primed T cells = experiment: lymphokine production by TCR-stimulated primed T cells, sandwich ELISA of culture supernatant; type: cell-based, mouse (BALB/c); settings: 48 h supernatant
Experimental: Sandwich Enzyme Linked Immunosorbent Assay (ELISA). The wells of a 96-well flexible microtiter plate (Falcon, Oxnard, Calif.) were coated with capturing monoclonal antibody (anti-IFN-γ; Pharmingen, San Diego, Calif.) to the cytokine being assayed. The plate was incubated overnight at 4° C. and was washed with a solution of phosphate buffer saline, […] and 1% BSA (wash buffer) and blocked with PBS plus 1% BSA (PBS-BSA). The plate was incubated for 1 hour room temperature and washed. Samples were added to the wells and the plate was incubated for 3 hours at room temperature. The plate was washed 3 times and into each well 100 μl of 1.0 μg/ml of biotinylated-detecting monoclonal anti-IFN-γ antibody (Pharmingen) was added. The plate was incubated for 1 hour and washed 3 times. Strepavidin-β-galactosidase (Gibco/BRL), 100 μl, was added to the wells and the plate was incubated for 30 min and washed 5 times. The substrate chlorophenyl-red-β-D-galactoside (CPRG: Calbiochem, San Diego, Calif.) was added to the wells and color was allowed to develop for 30 min. The optical density of the converted CPRG was read on a standard ELISA plate reader at a wavelength of 570 nm. The INF-γ concentration of the standard samples were plotted against their OD to create a standard curve. Using this standard curve, the concentration of INF-γ in the assayed culture supernatant was determined from the OD of the test well and sample dilution factor.
α-MSH treatment of primed T cells. […] The cells were collected onto filter paper using a Tomtec Plate Harvester 96, and radiolabel was measured using a Wallac 1205 Betaplate Liquid Scintillation Counter. […]
In FIG. 16A, proliferation was measured by adding to the T cell cultures 3H-thymidine 24 hours after activation and measuring the counts per minute (CPM) 24 hours later. In FIG. 16(B-D), lymphokine production was measured by assaying the 48 hour culture supernatants by sandwich ELISA for IFN-γ, IL-4, and IL-10. […]

[2] = TCR-stimulated in the presence of α-MSH

α-melanocyte stimulating hormone (SYSMEHFRWGKPV; not fully specified; ends and bridges not checked; UniProt P01189 138-150, looked up) [α-MSH, synthetic α-MSH (Peninsula Laboratories); thirteen-amino acid neuropeptide derived from POMC]
percentage of CD25+ CD4+ cells (CD25+ CD4+ T cells): did not change | severity of experimental autoimmune uveitis (EAU) [1]: significantly suppressed | IL-4 in culture supernatant (primed T cells; [2]): no effect; also recorded: no IL-4 was detected | IL-10 production (primed T cells; [2]): suppressed | IFN-γ production by TCR-stimulated primed T cells (primed T cells; versus T cells TCR-stimulated in the absence of α-MSH): significantly (p=0.05) suppressed
